Results as given in patent publication US10150739B2, “Crystalline form of androgen receptor inhibitor and preparation method thereof” (priority 2015, dated 2018).
Read-outs that look alike come from different tables or passages of the source.

Legend:
[1] = assay type: physicochemical
Method: Samplings were carried out on Day 5 and Day 10.

[2] = assay type: physicochemical; remark: listed apart in the source
[3] = assay type: physicochemical; details: for Crystal form / Purity: 25° C., RH 60%
Method: The sample was placed under conditions of 25° C., RH 60% for a long period of time, and regular sampling was carried out to determine the purity.

[4] = assay type: physicochemical; remark: listed apart in the source
Method: (§1) The compound of formula (I) (0.5 g, 1.04 mmol) (prepared according to Example 1) and the compound of formula (I) (0.5 g, 1.04 mmol) (prepared according to Example 11) were added to a 25 mL one-necked flask, followed by addition of 4.0 mL of ethyl acetate-isopropyl ether (v:v=1:1). The mixture was pulped at room temperature, then filtered and dried to obtain a solid (872 mg, yield: 87.2%).
as §1, with “12)” for “11)”, “(850” for “(872”, “85.0%).” for “87.2%).”

AR [5] = target: T1, AR (Homo sapiens, UniProt P10275); details: compared with MDV-3100; cited from earlier work
T1 sequence (P10275 1-920): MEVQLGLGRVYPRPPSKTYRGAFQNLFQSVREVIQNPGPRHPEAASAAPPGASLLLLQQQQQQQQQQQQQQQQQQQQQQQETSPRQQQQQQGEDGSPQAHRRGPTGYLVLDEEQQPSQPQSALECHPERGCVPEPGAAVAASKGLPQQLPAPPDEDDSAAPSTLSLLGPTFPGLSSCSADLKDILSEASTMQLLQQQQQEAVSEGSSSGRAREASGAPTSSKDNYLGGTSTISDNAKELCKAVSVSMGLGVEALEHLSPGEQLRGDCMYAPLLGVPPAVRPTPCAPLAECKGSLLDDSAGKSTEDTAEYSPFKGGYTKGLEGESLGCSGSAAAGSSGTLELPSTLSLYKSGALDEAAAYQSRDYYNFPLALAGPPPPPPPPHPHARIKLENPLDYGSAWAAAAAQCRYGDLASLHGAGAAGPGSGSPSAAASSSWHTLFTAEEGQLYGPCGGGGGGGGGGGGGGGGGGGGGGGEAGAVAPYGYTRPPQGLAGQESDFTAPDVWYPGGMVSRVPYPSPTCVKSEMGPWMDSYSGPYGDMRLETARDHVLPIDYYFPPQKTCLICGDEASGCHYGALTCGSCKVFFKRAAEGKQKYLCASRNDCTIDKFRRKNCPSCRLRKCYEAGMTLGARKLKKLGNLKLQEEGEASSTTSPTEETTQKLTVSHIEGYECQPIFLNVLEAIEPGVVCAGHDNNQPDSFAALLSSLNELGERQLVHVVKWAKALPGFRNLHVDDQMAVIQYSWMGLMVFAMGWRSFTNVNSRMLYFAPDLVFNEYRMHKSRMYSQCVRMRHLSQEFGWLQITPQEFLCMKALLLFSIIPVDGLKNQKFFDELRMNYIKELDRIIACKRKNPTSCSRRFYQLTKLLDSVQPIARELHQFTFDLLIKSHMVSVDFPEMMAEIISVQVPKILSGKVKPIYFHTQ

AR [6] = target: T1, AR; details: cited from earlier work
hERG = hERG (Homo sapiens, UniProt Q12809); details: cited from earlier work
Sequence of hERG (Q12809 whole entry): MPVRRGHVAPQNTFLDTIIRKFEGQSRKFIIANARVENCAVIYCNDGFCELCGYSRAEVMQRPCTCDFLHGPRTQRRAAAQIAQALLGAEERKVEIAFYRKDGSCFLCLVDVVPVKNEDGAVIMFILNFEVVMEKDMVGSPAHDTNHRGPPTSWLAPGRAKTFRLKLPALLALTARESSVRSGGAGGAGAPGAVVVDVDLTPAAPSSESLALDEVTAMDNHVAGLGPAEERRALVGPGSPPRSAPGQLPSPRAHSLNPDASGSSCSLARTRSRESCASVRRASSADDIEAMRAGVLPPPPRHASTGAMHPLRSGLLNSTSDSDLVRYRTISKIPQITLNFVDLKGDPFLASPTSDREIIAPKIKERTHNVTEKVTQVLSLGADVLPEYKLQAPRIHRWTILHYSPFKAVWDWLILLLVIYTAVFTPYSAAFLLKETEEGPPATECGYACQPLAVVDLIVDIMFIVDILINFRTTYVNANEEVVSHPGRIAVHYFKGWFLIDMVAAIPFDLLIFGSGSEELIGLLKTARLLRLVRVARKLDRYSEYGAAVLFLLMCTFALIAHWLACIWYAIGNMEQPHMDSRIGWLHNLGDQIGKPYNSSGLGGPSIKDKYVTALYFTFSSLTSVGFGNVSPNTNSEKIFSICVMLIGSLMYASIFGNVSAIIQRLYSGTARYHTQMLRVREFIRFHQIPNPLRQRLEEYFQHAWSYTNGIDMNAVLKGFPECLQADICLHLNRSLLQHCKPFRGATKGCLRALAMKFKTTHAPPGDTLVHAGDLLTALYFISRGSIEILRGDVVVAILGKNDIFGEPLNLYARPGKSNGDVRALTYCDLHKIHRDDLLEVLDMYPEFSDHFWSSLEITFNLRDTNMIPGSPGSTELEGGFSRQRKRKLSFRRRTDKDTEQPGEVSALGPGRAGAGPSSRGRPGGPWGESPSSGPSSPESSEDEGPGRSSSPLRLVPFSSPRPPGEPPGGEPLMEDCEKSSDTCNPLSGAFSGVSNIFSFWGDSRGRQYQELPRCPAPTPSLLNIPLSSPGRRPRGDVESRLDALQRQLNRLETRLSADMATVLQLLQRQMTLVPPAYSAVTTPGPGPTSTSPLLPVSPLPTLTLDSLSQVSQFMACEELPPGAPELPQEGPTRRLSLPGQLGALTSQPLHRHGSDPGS

[7] = system: five major subtypes of CYP450; details: cited from earlier work
[8] = rat; cited from earlier work
[9] = dog; cited from earlier work
[10] = mouse, in vivo; cited from earlier work
AIPC [11] = details: mouse; cited from earlier work
AIPC [12] = details: human; cited from earlier work

Q: Which “purity as detected by HPLC” value ([1]; 40° C., day 0) does the source give for `CC1(C)C(=O)N(c2ccc(C#N)c(C(F)(F)F)c2)C(=S)N1c1ccc(OC[C@@H](O)CO)cc1` [Crystal form I, (S)-4-(3-(4-(2,3-dihydroxypropoxy)phenyl)-4,4-dimethyl-5-carbonyl-2-thioimidazolin-1-yl)-2-(trifluoromethyl)benzonitrile] here?
A: 99.93%

Q: And the “purity as detected by HPLC” value ([1]; 40° C., day 5)?
A: 99.91%

Q: What about the “purity as detected by HPLC” value ([1]; 40° C., day 10) of the same compound?
A: 99.91%

Q: What about the “purity as detected by HPLC” value ([1]; 60° C., day 0) of the same compound?
A: 99.93%

Q: What about the “purity as detected by HPLC” value ([1]; 60° C., day 5) of the same compound?
A: 99.92%

Q: What about the “purity as detected by HPLC” value ([1]; 60° C., day 10) of the same compound?
A: 99.90%

Q: And the “purity as detected by HPLC” value ([1]; Lighting (4500 Lux), day 0)?
A: 99.93%

Q: And the “purity as detected by HPLC” value ([1]; Lighting (4500 Lux), day 5)?
A: 99.91%

Q: What about the “purity as detected by HPLC” value ([1]; Lighting (4500 Lux), day 10) of the same compound?
A: 99.91%

Q: And the “purity as detected by HPLC” value ([1]; RH 75%, day 0)?
A: 99.93%

Q: And the “purity as detected by HPLC” value ([1]; RH 75%, day 5)?
A: 99.89%

Q: And the “purity as detected by HPLC” value ([1]; RH 75%, day 10)?
A: 99.91%

Q: And the “purity as detected by HPLC” value ([1]; RH 90%, day 0)?
A: 99.93%

Q: And the “purity as detected by HPLC” value ([1]; RH 90%, day 5)?
A: 99.92%

Q: What about the “purity as detected by HPLC” value ([1]; RH 90%, day 10) of the same compound?
A: 99.92%

Q: And the DSC peak ([2]; after grinding treatment for 10 minutes)?
A: 158.26 °C

Q: And the DSC peak ([2]; after heating treatment for 3 hours at 80° C.)?
A: 158.17 °C

Q: And the DSC peak ([2]; after pressing treatment)?
A: 158.33 °C

Q: And the Crystal form ([3]; 0 month)?
A: Crystal form I

Q: What about the Purity ([3]; 0 month) of the same compound?
A: 99.93%

Q: What about the Crystal form ([3]; 6 months) of the same compound?
A: Crystal form I

Q: What about the Purity ([3]; 6 months) of the same compound?
A: 99.93%

Q: What about the Purity ([3]; 12 months) of the same compound?
A: 99.93%

Q: What about the Purity ([3]; 24 months) of the same compound?
A: 99.93%

Q: And the Crystal form ([3]; 36 months)?
A: Crystal form I

Q: What about the Purity ([3]; 36 months) of the same compound?
A: 99.94%

Q: And the long-term storage stability ([3]; 36 months)?
A: stable after placing under such conditions for 36 months

Q: What about the “relative stability of crystal forms” value [4] of the same compound?
A: more stable

Q: With `CC1(C)C(=O)N(c2ccc(C#N)c(C(F)(F)F)c2)C(=S)N1c1ccc(OC[C@@H](O)CO)cc1` [crystal form III] as the compound, how does the crystal form transformation ([4]; pulped with crystal form I in ethyl acetate-isopropyl ether (v:v=1:1) at room temperature) read?
A: can be transformed into crystal form I

Q: For `CC1(C)C(=O)N(c2ccc(C#N)c(C(F)(F)F)c2)C(=S)N1c1ccc(OC[C@@H](O)CO)cc1` [compound of formula (I), (S)-4-(3-(4-(2,3-dihydroxypropoxy)phenyl)-4,4-methyl-5-carbonyl-2-thioimidazolin-1-yl)-2-(trifluoromethyl)benzonitrile], which activity in vitro (AR [5]) is on record?
A: slightly better than that of MDV-3100

Q: And the AR agonist activity (AR [6]; at 3 μM)?
A: no AR agonist activity

Q: And the AR agonist activity (AR [6]; at 10 μM)?
A: no AR agonist activity

Q: And the IC50 (hERG)?
A: 24.8 µM

Q: And the IC50 [7]?
A: > 50 µM

Q: What about the in vivo exposure [8] of the same compound?
A: comparable to that of MDV-3100

Q: And the in vivo exposure [9]?
A: more than six times that of MDV-3100

Q: What about the “ratio of drug concentration in brain tissue to drug concentration in plasma” value [10] of the same compound?
A: much lower than that of MDV-3100

Q: Which results are given for `CNC(=O)c1ccc(N2C(=S)N(c3ccc(C#N)c(C(F)(F)F)c3)C(=O)C2(C)C)cc1F` [MDV-3100]?
A: inhibition of growth of AIPC (AIPC [11]): can inhibit the growth of AIPC; inhibition of growth of AIPC (AIPC [12]): can inhibit the growth of AIPC
